Experimental data reported in PubChem BioAssay AID330 (DTP/NCI, 2004).
Values joined by “and” are separate entries in the source; they are usually repeats but may differ in a detail not shown here. Identical values can stand only once. Toxic doses and inconclusive results are not listed.

System: P388 leukemia ip, CD2F1 mice, survival T/C
Test: NCI In Vivo Anticancer Drug Screen. Data for tumor model P388 Leukemia (intraperitoneal) in CD2F1 (CDF1) mice
Conditions: endpoint: median survival time, higher = longer survival
In short: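 Mice carrying the transplanted tumor received test compound or vehicle. Survival was recorded in each group, and the value is the treated-group measurement divided by that of the vehicle-treated control group.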

[1] = dose: 25.0 mg/kg/injection, schedule: Q01DX005 (ip), vehicle: Klucel (hydroxypropylcellulose) (HPC)
[2] = dose: 50.0 mg/kg/injection, schedule: Q01DX005 (ip), vehicle: Klucel (hydroxypropylcellulose) (HPC)
[3] = dose: 100.0 mg/kg/injection, schedule: Q01DX005 (ip), vehicle: Klucel (hydroxypropylcellulose) (HPC)
[4] = dose: 50.0 mg/kg/injection, schedule: Q01DX009 (ip), vehicle: saline with Tween-80
[5] = dose: 100.0 mg/kg/injection, schedule: Q01DX009 (ip), vehicle: saline with Tween-80
[6] = dose: 50.0 mg/kg/injection, schedule: Q01DX009 (ip), vehicle: Klucel (hydroxypropylcellulose) (HPC)
[7] = dose: 50.0 mg/kg/injection, schedule: Q01DX005 (ip), vehicle: saline with Tween-80
[8] = dose: 100.0 mg/kg/injection, schedule: Q01DX005 (ip), vehicle: saline with Tween-80
[9] = dose: 200.0 mg/kg/injection, schedule: Q01DX005 (ip), vehicle: saline with Tween-80
[10] = dose: 200.0 mg/kg/injection, schedule: Q01DX009 (ip), vehicle: saline with Tween-80
[11] = dose: 60.0 mg/kg/injection, schedule: Q01DX005 (ip), vehicle: saline with Tween-80
[12] = dose: 120.0 mg/kg/injection, schedule: Q01DX005 (ip), vehicle: saline with Tween-80
[13] = dose: 240.0 mg/kg/injection, schedule: Q01DX005 (ip), vehicle: saline with Tween-80

For CCOc1cc(C=Nc2cc(Cl)c(O)c(Cl)c2)ccc1N(CCCl)CCCl, the T/C (dose: 3.13 mg/kg/injection, schedule: Q04DX003 (ip), vehicle: saline with Tween-80) was 122 % of control, the T/C (dose: 12.5 mg/kg/injection, schedule: Q01DX009 (ip), vehicle: saline with Tween-80) was 218 % of control and the T/C (dose: 12.5 mg/kg/injection, schedule: Q04DX003 (ip), vehicle: saline with Tween-80) was 168 % of control. For the same compound, the T/C (dose: 16.5 mg/kg/injection, schedule: Q04DX003 (ip), vehicle: saline with Tween-80) was 171 % of control, the T/C (dose: 25.0 mg/kg/injection, schedule: Q01DX009 (ip), vehicle: saline with Tween-80) was 150 % of control and the T/C (dose: 25.0 mg/kg/injection, schedule: Q04DX003 (ip), vehicle: saline with Tween-80) was 185 % of control and 200 % of control. The T/C (dose: 37.5 mg/kg/injection, schedule: Q04DX003 (ip), vehicle: saline with Tween-80) was 204 % of control and the T/C (dose: 50.0 mg/kg/injection, schedule: Q04DX003 (ip), vehicle: saline with Tween-80) was 90 % of control.
With COc1ccc2c3c([nH]c2c1N)C(C)NCC3 (stereo not given) the T/C (dose: 12.5 mg/kg/injection, schedule: Q01DX005 (ip), vehicle: Klucel (hydroxypropylcellulose) (HPC)) was 102 % of control, the T/C [1] was 96 % of control and the T/C [2] was 104 % of control. For the same compound, the T/C [3] was 104 % of control.
C/C(=N/NC(=O)Cc1ccccc1)C(=NO)/C(C)=N\NC(=O)Cc1ccccc1 was tested, and the T/C (dose: 100.0 mg/kg/injection, schedule: Q04DX002 (ip), vehicle: saline) was 101 % of control, the T/C (dose: 200.0 mg/kg/injection, schedule: Q04DX002 (ip), vehicle: saline) was 108 % of control and the T/C (dose: 400.0 mg/kg/injection, schedule: Q04DX002 (ip), vehicle: saline) was 116 % of control.
For CCCCOC(=O)c1ccc2nc(NC(=O)OC)[nH]c2c1, the T/C (dose: 100.0 mg/kg/injection, schedule: Q04DX002 (ip), vehicle: saline with Tween-80) was 100 % of control, the T/C (dose: 200.0 mg/kg/injection, schedule: Q04DX002 (ip), vehicle: saline with Tween-80) was 90 % of control and the T/C (dose: 400.0 mg/kg/injection, schedule: Q04DX002 (ip), vehicle: saline with Tween-80) was 91 % of control.
With CCCCOc1cccc2c(NCCCCCCNc3c4ccccc4nc4c(OCCCC)cccc34)c3ccccc3nc12 the T/C (dose: 0.62 mg/kg/injection, schedule: Q## X009 (ip), vehicle: lactic acid) was 104 % of control, the T/C (dose: 1.25 mg/kg/injection, schedule: Q## X009 (ip), vehicle: lactic acid) was 104 % of control and the T/C (dose: 2.5 mg/kg/injection, schedule: Q## X009 (ip), vehicle: lactic acid) was 106 % of control. For the same compound, the T/C (dose: 5.0 mg/kg/injection, schedule: Q## X009 (ip), vehicle: lactic acid) was 99 % of control.
With O=C1OCC(c2ccno2)=C1O the T/C (dose: 60.0 mg/kg/injection, schedule: Q01DX005 (ip), vehicle: Klucel (hydroxypropylcellulose) (HPC)) was 100 % of control, the T/C (dose: 120.0 mg/kg/injection, schedule: Q01DX005 (ip), vehicle: Klucel (hydroxypropylcellulose) (HPC)) was 100 % of control and the T/C (dose: 240.0 mg/kg/injection, schedule: Q01DX005 (ip), vehicle: Klucel (hydroxypropylcellulose) (HPC)) was 104 % of control.
With CN(C)C(=O)c1cccc(COc2ccc([N+](=O)[O-])cc2Cl)c1 the T/C [4] was 110 % of control and the T/C [5] was 110 % of control.
For CN(C)Cc1cnccc1I, the T/C (dose: 50.0 mg/kg/injection, schedule: Q01DX005 (ip), vehicle: suspension in saline) was 101 % of control, the T/C (dose: 100.0 mg/kg/injection, schedule: Q01DX005 (ip), vehicle: suspension in saline) was 104 % of control and the T/C (dose: 200.0 mg/kg/injection, schedule: Q01DX005 (ip), vehicle: suspension in saline) was 108 % of control.
O=[N+]([O-])c1cc(F)cc([N+](=O)[O-])c1O was tested, and the T/C (dose: 12.5 mg/kg/injection, schedule: Q01DX009 (ip), vehicle: Klucel (hydroxypropylcellulose) (HPC)) was 102 % of control, the T/C (dose: 25.0 mg/kg/injection, schedule: Q01DX009 (ip), vehicle: Klucel (hydroxypropylcellulose) (HPC)) was 102 % of control and the T/C [6] was 112 % of control.
CN1CCC2CC(=O)NC1(C)C2(C)C (stereo not given) was tested, and the T/C (dose: 100.0 mg/kg/injection, schedule: Q01DX001 (ip), vehicle: saline) was 104 % of control, the T/C (dose: 200.0 mg/kg/injection, schedule: Q01DX001 (ip), vehicle: saline) was 106 % of control and the T/C (dose: 400.0 mg/kg/injection, schedule: Q01DX001 (ip), vehicle: saline) was 106 % of control.
With Cc1nc2ccccc2nc1NNc1ccccc1 the T/C [7] was 90 % of control, the T/C [8] was 87 % of control and the T/C [9] was 87 % of control.
For CC1C2=C(CC(C)(C)CC2=O)OC2=C1C(=O)CC(C)(C)C2, the T/C [4] was 103 % of control, the T/C [5] was 104 % of control and the T/C [10] was 99 % of control.
For Fc1ccc(-c2cc(-c3cccs3)cc(-c3ccccc3)n2)cc1, the T/C [6] was 121 % of control, the T/C (dose: 100.0 mg/kg/injection, schedule: Q01DX009 (ip), vehicle: Klucel (hydroxypropylcellulose) (HPC)) was 102 % of control and the T/C (dose: 200.0 mg/kg/injection, schedule: Q01DX009 (ip), vehicle: Klucel (hydroxypropylcellulose) (HPC)) was 100 % of control.
In the case of COc1ccc(C(=O)CC(=O)CCC(=O)Nc2cc(C)ccc2C)cc1, the T/C [11] is reported as 101 % of control, the T/C [12] is reported as 105 % of control and the T/C [13] is reported as 97 % of control.
In the case of CN1CCC/C1=C1/C(=O)Nc2ccc(Cl)cc21, the T/C [2] is reported as 108 % of control, the T/C [3] is reported as 107 % of control and the T/C (dose: 200.0 mg/kg/injection, schedule: Q01DX005 (ip), vehicle: Klucel (hydroxypropylcellulose) (HPC)) is reported as 102 % of control.
CCCC[P+](CCCC)(CCCC)CCN1C(=O)c2ccccc2C1=O was tested, and the T/C (dose: 0.78 mg/kg/injection, schedule: Q01DX009 (ip), vehicle: water) was 92 % of control, the T/C (dose: 1.56 mg/kg/injection, schedule: Q01DX009 (ip), vehicle: water) was 93 % of control and the T/C (dose: 3.13 mg/kg/injection, schedule: Q01DX009 (ip), vehicle: water) was 106 % of control. For the same compound, the T/C (dose: 6.25 mg/kg/injection, schedule: Q01DX009 (ip), vehicle: water) was 99 % of control, the T/C (dose: 12.5 mg/kg/injection, schedule: Q01DX009 (ip), vehicle: water) was 100 % of control and the T/C (dose: 25.0 mg/kg/injection, schedule: Q01DX009 (ip), vehicle: water) was 100 % of control and 101 % of control. The T/C (dose: 50.0 mg/kg/injection, schedule: Q01DX009 (ip), vehicle: water) was 106 % of control and the T/C (dose: 100.0 mg/kg/injection, schedule: Q01DX009 (ip), vehicle: water) was 116 % of control.
With CN=C1c2ccccc2C(=O)c2c1c(O)n(-c1ccccc1)c2O the T/C [2] was 96 % of control and the T/C [3] was 100 % of control.
For CN1NC(C)(c2cccnc2)SC1=S (stereo not given), the T/C [4] was 95 % of control, the T/C [5] was 100 % of control and the T/C [10] was 97 % of control.
For [Cl][Ru][Cl].[NH-]CC[NH-].[NH-]CC[NH-], the T/C (dose: 12.5 mg/kg/injection, schedule: Q04DX003 (ip), vehicle: water) was 111 % of control and 123 % of control and 124 % of control, the T/C (dose: 25.0 mg/kg/injection, schedule: Q04DX003 (ip), vehicle: water) was 107 % of control and the T/C (dose: 50.0 mg/kg/injection, schedule: Q04DX003 (ip), vehicle: water) was 155 % of control.
With COC1=CC(c2ccccc2)=N/C1=C/c1ccc[nH]1 the T/C (dose: 50.0 mg/kg/injection, schedule: Q01DX001 (ip), vehicle: Klucel (hydroxypropylcellulose) (HPC)) was 95 % of control, the T/C (dose: 100.0 mg/kg/injection, schedule: Q01DX001 (ip), vehicle: Klucel (hydroxypropylcellulose) (HPC)) was 100 % of control and the T/C (dose: 200.0 mg/kg/injection, schedule: Q01DX001 (ip), vehicle: Klucel (hydroxypropylcellulose) (HPC)) was 98 % of control.
In the case of CNc1[nH]c(=O)ncc1N, the T/C [1] is reported as 98 % of control, the T/C [2] is reported as 98 % of control and the T/C [3] is reported as 98 % of control.
In the case of C=C1CC23CCC4C(C)(C(=O)O)CCCC4(C)C2CCC1C3 (stereo not given), the T/C [7] is reported as 116 % of control, the T/C [8] is reported as 116 % of control and the T/C [9] is reported as 117 % of control. The T/C (dose: 400.0 mg/kg/injection, schedule: Q01DX005 (ip), vehicle: saline with Tween-80) was 107 % of control.
For CC(C)CN1C(=O)C2C3CCC(O3)C2C1=O (stereo not given), the T/C [11] was 91 % of control, the T/C [12] was 91 % of control and the T/C [13] was 91 % of control.
